What is called IC50 is the concentration that inhibits the measured activity by half. A lower IC50 goes with higher potency.

The record followed here is patent US20250276953A1, “SMALL MOLECULE SIRTUIN INHIBITORS AND USES THEREOF” (The Regents of the University of Michigan, priority 2022, published 2025).

Experiment [1] deals with T1, SIRT5 (Homo sapiens (Human), UniProt Q9NXA8). Nature of the experiment: SIRT5 IC50 (Table I). It is filed as biochemical.
Experiment [2] relates to Ewing sarcoma cell line A4573. Nature of the experiment: Growth inhibition of Ewing sarcoma cell line A4573. Format: cell-based.
Experiment [3] relates to Ewing sarcoma cell line A673. Briefly: Growth inhibition of Ewing sarcoma cell line A673. It is filed as cell-based.
Experiment [4] concerns the target T1, SIRT5. Briefly: Degradation of SIRT5 protein. Format: cell-based.

T1 sequence (Q9NXA8 37-310): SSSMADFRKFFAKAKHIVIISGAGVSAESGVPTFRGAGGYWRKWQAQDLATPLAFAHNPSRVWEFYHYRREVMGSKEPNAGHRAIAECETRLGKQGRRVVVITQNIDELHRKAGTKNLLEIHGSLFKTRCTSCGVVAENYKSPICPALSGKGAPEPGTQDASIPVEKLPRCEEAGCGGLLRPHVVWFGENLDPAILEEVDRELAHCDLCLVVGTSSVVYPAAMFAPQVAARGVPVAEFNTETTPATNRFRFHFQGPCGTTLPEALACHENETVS

On SIRT5 [1], `CC(=O)Nc1ccc(-c2csc(Nc3ccc(C(=O)O)c(O)c3)n2)cc1` [Compound 1-1, 4-((4-(4-acetamidophenyl)thiazol-2-yl)amino)-2-hydroxybenzoic acid] yielded an IC50 of 26.4 ± 0.83 µM.

`Cc1ccc(-c2csc(NC(=S)Nc3ccc(C(=O)O)c(O)c3)n2)cc1` [Compound 1-10, 2-hydroxy-4-(3-(4-(p-tolyl)thiazol-2-yl)thioureido)benzoic acid] displayed an IC50 on SIRT5 [1] of 23.4 ± 0.92 µM.

`O=C(O)c1ccc(NC(=S)Nc2nc(-c3cccc(F)c3)cs2)cc1O` [Compound 1-14, 4-(3-(4-(3-fluorophenyl)thiazol-2-yl)thioureido)-2-hydroxybenzoic acid] returned an IC50 against SIRT5 [1] of 18.3 ± 0.95 µM.

For `N#Cc1ccc(-c2csc(NC(=S)Nc3ccc(C(=O)O)c(O)c3)n2)cc1` [Compound 1-22, 4-(3-(4-(4-cyanophenyl)thiazol-2-yl)thioureido)-2-hydroxybenzoic acid], at SIRT5 [1], half-maximal inhibition (IC50) was put at 11.4 ± 0.5 µM.

At SIRT5 [1], `O=C(O)c1ccc(NC(=S)Nc2nc(-c3ccc(O)cc3)cs2)cc1O` [Compound 1-20, 2-hydroxy-4-(3-(4-(4-hydroxyphenyl)thiazol-2-yl)thioureido)benzoic acid] displayed an IC50 of 42.5 ± 3.83 µM.

`CC(=O)Nc1ccccc1-c1csc(NC(=S)Nc2ccc(C(=O)O)c(O)c2)n1` [Compound 1-25, 4-(3-(4-(2-acetamidophenyl)thiazol-2-yl)thioureido)-2-hydroxybenzoic acid] came in with an IC50 on SIRT5 [1] of 55.6 ± 5.49 µM.

`O=C(O)c1ccc(NC(=S)Nc2nc(-c3ccc([N+](=O)[O-])c(S(=O)(=O)NCc4ccccc4)c3)cs2)cc1O` [Compound 1-39, 4-(3-(4-(3-(N-benzylsulfamoyl)-4-nitrophenyl)thiazol-2-yl)thioureido)-2-hydroxybenzoic acid] gave a 50% inhibitory concentration (IC50) on SIRT5 [1] of 2.5 ± 0.21 µM.

In the case of `CCOC(=O)c1ccc(Nc2nc(-c3ccc(NC(=O)CCCCNC(=O)COc4cccc5c4C(=O)N(C4CCC(=O)NC4=O)C5=O)cc3)cs2)cc1O` (stereo not shown) [Compound 1-3, ethyl 4-((4-(4-(5-(2-((2-(2,6-dioxopiperidin-3-yl)-1,3-dioxoisoindolin-4-yl)oxy)acetamido)pentanamido)phenyl)thiazol-2-yl)amino)-2-hydroxybenzoate], the “growth of Ewing sarcoma cells” value in experiment [2] and in experiment [3] was “inhibited growth” throughout. In addition, the “degradation of protein SIRT5” value on SIRT5 [4] is given as “degraded”.

`CC(=O)Nc1cccc(-c2csc(NC(=S)Nc3ccc(C(=O)O)c(O)c3)n2)c1` [Compound 1-24, 4-(3-(4-(3-acetamidophenyl)thiazol-2-yl)thioureido)-2-hydroxybenzoic acid] showed an IC50 at SIRT5 [1] of 35.6 ± 1.3 µM.

Compound `Cc1ccccc1-c1csc(NC(=S)Nc2ccc(C(=O)O)c(O)c2)n1` [Compound 1-12, 2-hydroxy-4-(3-(4-(o-tolyl)thiazol-2-yl)thioureido)benzoic acid] yielded an IC50 against SIRT5 [1] of 34 ± 2.18 µM.

Take `COc1ccc(-c2csc(NC(=S)Nc3ccc(C(=O)O)c(O)c3)n2)cc1` [Compound 1-18, 2-hydroxy-4-(3-(4-(4-methoxyphenyl)thiazol-2-yl)thioureido)benzoic acid]: it took 29.2 ± 2.88 µM to reach half-maximal inhibition against SIRT5 [1] (IC50).

At SIRT5 [1], `O=C(O)c1ccc(NC(=S)Nc2nc(-c3ccc(F)cc3)cs2)cc1O` [Compound 1-13, 4-(3-(4-(4-fluorophenyl)thiazol-2-yl)thioureido)-2-hydroxybenzoic acid] yielded an IC50 of 17.3 ± 0.28 µM.

The compound `N#Cc1ccc(-c2csc(NC(=S)Nc3ccc(C(=O)O)c(O)c3)n2)c(F)c1` [Compound 1-33, 4-(3-(4-(4-cyano-2-fluorophenyl)thiazol-2-yl)thioureido)-2-hydroxybenzoic acid] returned an IC50 at SIRT5 [1] of 14.8 ± 0.81 µM.

For the compound `N#Cc1ccc(-c2csc(NC(=S)Nc3ccc(C(=O)O)c(O)c3)n2)cc1F` [Compound 1-32, 4-(3-(4-(4-cyano-3-fluorophenyl)thiazol-2-yl)thioureido)-2-hydroxybenzoic acid], the IC50 on SIRT5 [1] is 12.8 ± 0.48 µM.

The compound `O=C(O)c1ccc(NC(=S)Nc2nc(-c3cccc(C(F)(F)F)c3)cs2)cc1O` [Compound 1-17, 2-hydroxy-4-(3-(4-(3-(trifluoromethyl)phenyl)thiazol-2-yl)thioureido)benzoic acid] returned an IC50 at SIRT5 [1] of 24.3 ± 2.54 µM.

Regarding `O=C(O)c1ccc(NC(=S)Nc2nc(-c3ccc([N+](=O)[O-])cc3F)cs2)cc1O` [Compound 1-34, 4-(3-(4-(2-fluoro-4-nitrophenyl)thiazol-2-yl)thioureido)-2-hydroxybenzoic acid], the IC50 against SIRT5 [1] was determined as 23.8 ± 2.71 µM.

Compound `O=C(O)c1ccc(NC(=S)Nc2nc(-c3ccc([N+](=O)[O-])c(F)c3)cs2)cc1O` [Compound 1-35, 4-(3-(4-(3-fluoro-4-nitrophenyl)thiazol-2-yl)thioureido)-2-hydroxybenzoic acid] registered an IC50 at SIRT5 [1] of 14.9 ± 1.35 µM.

Take `O=C(O)c1ccc(NC(=S)Nc2nc(-c3ccc(F)cc3F)cs2)cc1O` [Compound 1-31, 4-(3-(4-(2,4-difluorophenyl)thiazol-2-yl)thioureido)-2-hydroxybenzoic acid]: at SIRT5 [1], half-maximal inhibition (IC50) was put at 19.3 ± 0.93 µM. This IC50 and that of the compound before are within 1.5-fold of each other.

In turn, `CNS(=O)(=O)c1ccc(-c2csc(NC(=S)Nc3ccc(C(=O)O)c(O)c3)n2)cc1` [Compound 1-28, 2-hydroxy-4-(3-(4-(4-(N-methylsulfamoyl)phenyl)thiazol-2-yl)thioureido)benzoic acid] returned an IC50 at SIRT5 [1] of 38.8 ± 3.13 µM.

Compound `O=C(O)c1ccc(NC(=S)Nc2nc(-c3ccc([N+](=O)[O-])cc3)cs2)cc1O` [Compound 1-23, 2-hydroxy-4-(3-(4-(4-nitrophenyl)thiazol-2-yl)thioureido)benzoic acid] yielded an IC50 on SIRT5 [1] of 4.3 ± 0.3 µM. This IC50 lies about 9-fold lower than the previous one.

`CC(=O)Nc1ccc(-c2csc(NC(=S)Nc3ccc(C(=O)O)cc3O)n2)cc1` [Compound 1-9, 4-(3-(4-(4-acetamidophenyl)thiazol-2-yl)thioureido)-3-hydroxybenzoic acid]: at SIRT5 [1], the IC50 stood at 50.7 ± 5.64 µM.

`O=C(O)c1ccc(NC(=S)Nc2nc(-c3ccc(F)c(S(=O)(=O)NC4CCCC4)c3)cs2)cc1O` [Compound 1-37, 4-(3-(4-(3-(N-cyclopentylsulfamoyl)-4-fluorophenyl)thiazol-2-yl)thioureido)-2-hydroxybenzoic acid] had an IC50 on SIRT5 [1] of 24.9 ± 0.54 µM.

For `CCOC(=O)c1ccc(Nc2nc(-c3ccc(NC(C)=O)cc3)cs2)cc1O` [Compound 1-2, Ethyl 4-((4-(4-acetamidophenyl)thiazol-2-yl)amino)-2-hydroxybenzoate], the “growth of Ewing sarcoma cells” value in experiment [2] and in experiment [3] was “inhibited growth” throughout.

With `CC(=O)Nc1ccc(-c2csc(NC(=S)Nc3ccc(O)c(C(=O)O)c3)n2)cc1` [Compound 1-8, 5-(3-(4-(4-acetamidophenyl)thiazol-2-yl)thioureido)-2-hydroxybenzoic acid], on SIRT5 [1], the IC50 amounted to 55.9 ± 5.42 µM.

At SIRT5 [1], `CC(=O)Nc1ccc(-c2csc(NC(=S)Nc3ccc(C(=O)O)cc3)n2)cc1` [Compound 1-7, 4-(3-(4-(4-acetamidophenyl)thiazol-2-yl)thioureido)benzoic acid] came in with a half-maximal inhibitory concentration (IC50) of 101 ± 8.48 µM.

At SIRT5 [1], `CC(=O)Nc1ccc(-c2csc(NC(=S)Nc3ccc(C(=O)O)c(O)c3)n2)cc1` [Compound 1-5, 4-(3-(4-(4-acetamidophenyl)thiazol-2-yl)thioureido)-2-hydroxybenzoic acid] returned an IC50 of 12.4 ± 0.58 µM. Compared with the last compound, the IC50 is about 8.1-fold lower.

Consider `O=C(O)c1ccc(NC(=S)Nc2nc(-c3ccc(F)c(S(=O)(=O)NCc4ccccc4)c3)cs2)cc1O` [Compound 1-38, 4-(3-(4-(3-(N-benzylsulfamoyl)-4-fluorophenyl)thiazol-2-yl)thioureido)-2-hydroxybenzoic acid], for which the IC50 at SIRT5 [1] came out at 8.22 ± 1.3 µM. This IC50 lies about 1.5-fold lower than the previous one.

At SIRT5 [1], `COc1cccc(-c2csc(NC(=S)Nc3ccc(C(=O)O)c(O)c3)n2)c1` [Compound 1-19, 2-hydroxy-4-(3-(4-(3-methoxyphenyl)thiazol-2-yl)thioureido)benzoic acid] came in with an IC50 of 41.6 ± 3.79 µM.

On to `O=C(O)c1ccc(NC(=S)Nc2nc(-c3ccc(Br)cc3)cs2)cc1O` [Compound 1-26, 4-(3-(4-(4-bromophenyl)thiazol-2-yl)thioureido)-2-hydroxybenzoic acid], for which the IC50 against SIRT5 [1] stood at 18.6 ± 0.23 µM.

With `O=C(O)c1ccc(NC(=S)Nc2nc(-c3cccc(O)c3)cs2)cc1O` [Compound 1-21, 2-hydroxy-4-(3-(4-(3-hydroxyphenyl)thiazol-2-yl)thioureido)benzoic acid], it took 32.8 ± 3.87 µM to reach half-maximal inhibition against SIRT5 [1] (IC50). Against the preceding compound, the IC50 is about 1.8-fold higher.

In the case of `CNS(=O)(=O)c1cccc(-c2csc(NC(=S)Nc3ccc(C(=O)O)c(O)c3)n2)c1` [Compound 1-29, 2-hydroxy-4-(3-(4-(3-(N-methylsulfamoyl)phenyl)thiazol-2-yl)thioureido)benzoic acid], at SIRT5 [1], the midpoint of inhibition, the IC50, lay at 26.1 ± 1.91 µM. The IC50 values of the last two compounds are within 1.5-fold of each other.

For the compound `O=C(O)c1ccc(NC(=S)Nc2nc(-c3ccc(Cl)cc3)cs2)cc1O` [Compound 1-27, 4-(3-(4-(4-chlorophenyl)thiazol-2-yl)thioureido)-2-hydroxybenzoic acid], the IC50 against SIRT5 [1] amounted to 18.4 ± 0.28 µM.

On SIRT5 [1], `O=C(O)c1ccc(NC(=S)Nc2nc(-c3ccc(F)c(F)c3)cs2)cc1O` [Compound 1-30, 4-(3-(4-(3,4-difluorophenyl)thiazol-2-yl)thioureido)-2-hydroxybenzoic acid] yielded an IC50 of 16.1 ± 0.73 µM.

The compound `O=C(O)c1ccc(NC(=S)Nc2nc(-c3ccccc3F)cs2)cc1O` [Compound 1-15, 4-(3-(4-(2-fluorophenyl)thiazol-2-yl)thioureido)-2-hydroxybenzoic acid] displayed an IC50 against SIRT5 [1] of 26.2 ± 2.54 µM.

In turn, `Cc1cccc(-c2csc(NC(=S)Nc3ccc(C(=O)O)c(O)c3)n2)c1` [Compound 1-11, 2-hydroxy-4-(3-(4-(m-tolyl)thiazol-2-yl)thioureido)benzoic acid] yielded an IC50 on SIRT5 [1] of 27.7 ± 1.02 µM.

Compound `O=C(O)c1ccc(NC(=S)Nc2nc(-c3ccc(F)c([N+](=O)[O-])c3)cs2)cc1O` [Compound 1-36, 4-(3-(4-(4-fluoro-3-nitrophenyl)thiazol-2-yl)thioureido)-2-hydroxybenzoic acid] had an IC50 against SIRT5 [1] of 11.6 ± 0.74 µM. This IC50 lies about 2.4-fold lower than the previous one.

Consider `O=C(O)c1ccc(NC(=S)Nc2nc(-c3ccc(C(F)(F)F)cc3)cs2)cc1O` [Compound 1-16, 2-hydroxy-4-(3-(4-(4-(trifluoromethyl)phenyl)thiazol-2-yl)thioureido)benzoic acid], for which the IC50 at SIRT5 [1] came out at 26.8 ± 1.42 µM.
